Data taken from patent publication US20070203211A1, “Drug for preventing or treating angiogenic eye diseases” (SANKYO COMPANY, LIMITED, priority 2003, published 2007).

Experiments:
C57BL/6 mice = assay: oxygen-induced retinopathy in mice, retinopathy score by ADPase staining of retinal flat specimens; assay type: in vivo; settings: score as percentage of solvent control (100%), n = 9 to 16
Description: Seven-day-old C57BL/6 mice were housed for five days with their mother in roughly 75% oxygen. Subsequently, the animals were housed for another five days after returning to ordinary air. While being housed in air, the animals were administered a test compound once a day. Following completion of administration, the animals were sacrificed by dislocation of the cervical vertebra followed by excision of the eyeball. The eyeballs were fixed in neutral formalin. After preparing flat specimens of the retina, vascular endothelium was stained by ADPase staining (Lutty, et al., Arch. Ophthalmol. 1992; 100: 267). After staining, retinopathy was scored in a blind study, and retinopathy was assessed for each of 12 retinal sections obtained by dividing the entire circumference of the retina into 12 equal sections centering about the papilla of the optic nerve. Assessments were made by scoring either the presence of retinopathy (score: 1) or the absence of retinopathy (score: 0), and determining the retinopathy score for each specimen based on the total score of the 12 sections. The score of each test compound was calculated as a percentage based on assigning a value of 100% for the score following administration of solvent. The test compounds consisted of (5-methyl-2-oxo-1,3-dioxolen-4-yl)methyl 4-(1-hydroxy-1-methylethyl)-2-propyl-1-[2′-(1H-tetrazol-5-yl)biphenyl-4-ylmethyl]imidazole-5-carboxylate (hereinafter, indicated as “Compound A”) for the medicament of the present invention, Candesartan cilexetil and Losartan.

[1] = tested on: New Zealand White rabbits; assay: VEGF pellet-induced corneal neovascularization in rabbits; assay type: in vivo; settings: dosage 10 mg/kg once a day for one week; AA = neovascularization density score (0 to 5) x length (mm); solvent control 0.72 ± 0.15; n = 3
Source text: Male New Zealand White rabbits were used in this example. The animals were anesthetized by administering suitable amounts of animal […] (registered trade mark) 50 and Celactal (registered trade mark). Moreover, the eyes were topically anesthetized by dropping 0.4% Benoxil (registered trade mark) opthalmic solution. The procedure was basically preformed in accordance with the method of Ziche, et al. (J. Clin. Invest. 1997 99: 2625-2634), and consisted of creating a pocket in the center of the cornea with a razor, and inserting a hydron pellet containing VEGF produced in advance into the pocket. A solution of the test compound was administered once a day for one week. Corneal neovascularization was photographed on the day after final administration of the test compound. Neovascularization was evaluated using the density and length of newly formed vessels as an index. Namely, neovascularization density was scored from 0 to 5 by referring to standard photographs corresponding to each score. The length of neovascularization was calculated by measuring the length (mm) of vessels uniformly extending from the corneal limbus towards the pellet based on a scale bar on the photograph. The value obtained by multiplying the neovascularization density score by the neovascularization length (mm) was used to indicate angiogenic activity (AA).

[2] = dosage 3 mg/kg once a day for five days
[3] = dosage 10 mg/kg once a day for five days
[4] = dosage 30 mg/kg once a day for five days
[5] = dosage 1 mg/kg once a day for five days

Compound | Retinopathy (%) (C57BL/6 mice; [2]) | Retinopathy (%) (C57BL/6 mice; [3]) | Retinopathy (%) (C57BL/6 mice; [4]) | Retinopathy (%) (C57BL/6 mice; dosage 100 mg/kg once a day for five days) | Retinopathy (%) (C57BL/6 mice; [5]) | Angiogenic Activity (AA) [1]
CCCCc1nc(Cl)c(CO)n1Cc1ccc(-c2ccccc2-c2nn[nH]n2)cc1 [Losartan] | 90 ± 11% | 54 ± 10% | 42 ± 9% | 40 ± 11% | – | –
CCCc1nc(C(C)(C)O)c(C(=O)OCc2oc(=O)oc2C)n1Cc1ccc(-c2ccccc2-c2nnn[nH]2)cc1 [Compound A, (5-methyl-2-oxo-1,3-dioxolen-4-yl)methyl 4-(1-hydroxy-1-methylethyl)-2-propyl-1-[2′-(1H-tetrazol-5-yl)biphenyl-4-ylmethyl]imidazole-5-carboxylate] | 40 ± 9% | 31 ± 7% | 32 ± 11% | – | 57 ± 13% | 0.14 ± 0.11
CCOc1nc2cccc(C(=O)OC(C)OC(=O)OC3CCCCC3)c2n1Cc1ccc(-c2ccccc2-c2nnn[nH]2)cc1 (stereo not shown) [Candesartan cilexetil] | 70 ± 12% | 56 ± 11% | 58 ± 11% | – | 84 ± 14% | –
